From patent US12491180B2, “Application of compound in treating pneumonia” (SHENZHEN OPTIMUM BIOLOGICAL TECHNOLOGY CO., LTD., priority 2019, dated 2025)
≈ marks a conversion by molar mass, not a printed value.

Columns and labels:
Format in all cases: cell-based
[1] = tested on: Acinetobacter baumannii 6383; assay: MIC, solid dilution method; conditions: A.B 6383, CRE clinical isolate, MHA agar, 37° C., 16-20 hours, read-out: MIC
Description: (§1) CRE Acinetobacter baumannii 8476, 6383, a total of 2 strains; CRE Serratia marcescens 14541, a total of 1 strain; all collected in the Department of Infectious Diseases, West China Hospital, Chengdu, Sichuan Province, and kept in our laboratory.
(§2) The above-mentioned glycerol-preserved strains were taken out from the −80° C. refrigerator, streaked and inoculated on MHA plates, labeled, and cultured overnight in a 37° C. incubator.
(§3) The inoculum was prepared directly from bacterial suspension, and several recovered colonies were picked and directly prepared into a bacterial suspension with a turbidity of No. 0.5 McFarland units in normal saline, and a 10-fold dilution was made during inoculation.
(§4) 6 bottles of MHA culture medium 500 mL/bottle were prepared, and the pH was adjusted to 7.2-7.4, sterilized at 121° C. for 15 min, and the medium was placed in a 55° C. water bath to keep warm.
(§5) Sterile blank petri dishes were taken, and marked with each FL drug/concentration according to 2-fold dilution, and 10 concentrations of each drug starting from 8 μg/mL were tested.
(§6) […]; 20 mL was aspirated and added to a petri dish consistent with the mark, and then 20 mL of MHA culture medium was added to the rest of the drug-containing culture medium, mixed evenly, that is, the 2-fold diluted drug-containing culture medium; 20 mL was aspirated and added to the petri dish consistent with the mark, and then diluted to the 10th concentration and the […] respectively by repeating the above-mentioned steps, and then poured into the petri dish.
(§7) 4 bacterial control petri dishes without drug were prepared at the same time as a control.
(§8) The positioning needle and the inoculation needle were installed according to the order of placement of the colony on the inoculation plate. After inoculation, a bacterial solution circle was formed on the petri dish. After the bacterial solution was absorbed by the agar, the petri dish was placed in an incubator at 37° C. for overnight incubation (16-20 hours), and then taken out.
(§9) The minimum inhibitory concentrations of the compounds against the CRE and CSE strains were determined by the solid dilution method, and the results are shown in Tables 3 and 4.

[2] = tested on: Acinetobacter baumannii 8476; assay: MIC, solid dilution method; conditions: A.B 8476, CRE clinical isolate, MHA agar, 37° C., 16-20 hours, read-out: MIC
Description: as §1, §2, §3, §4, §5, §6, §7, §8, §9

[3] = tested on: Enterobacter aerogenes 8193; assay: MIC, solid dilution method; conditions: Klebsiella aerogenes; E. ae 8193, CRE clinical isolate; MHA agar, 37° C., 16-20 hours; read-out: MIC
Description: CRE Enterobacter aerogenes 8193, a total of 1 strain;
as §2, §3, §4, §5, §6, §7, §8, §9

[4] = tested on: Klebsiella pneumoniae 13249; assay: MIC, solid dilution method; conditions: K.p 13249, CRE clinical isolate, MHA agar, 37° C., 16-20 hours, read-out: MIC
Description: (§10) (2) Clinical isolated strains: CRE Klebsiella pneumoniae 5846, 11544, 12559, 13249 and CSE Klebsiella pneumoniae 8733, a total of 5 strains;
as §2, §3, §4, §5, §6, §7, §8, §9

[5] = tested on: Klebsiella pneumoniae 5846; assay: MIC, solid dilution method; conditions: K.p 5846, CRE clinical isolate, MHA agar, 37° C., 16-20 hours, read-out: MIC
Description: as §10, §2, §3, §4, §5, §6, §7, §8, §9

[6] = tested on: Klebsiella pneumoniae 12559; assay: MIC, solid dilution method; conditions: K.p 12559, CRE clinical isolate, MHA agar, 37° C., 16-20 hours, read-out: MIC
Description: as §10, §2, §3, §4, §5, §6, §7, §8, §9

[7] = tested on: Klebsiella pneumoniae 8733; assay: MIC, solid dilution method; conditions: K.p 8733, CSE clinical isolate, MHA agar, 37° C., 16-20 hours, read-out: MIC
Description: as §10, §2, §3, §4, §5, §6, §7, §8, §9

[8] = tested on: Klebsiella pneumoniae 11544; assay: MIC, solid dilution method; conditions: K.p 11544, CRE clinical isolate, MHA agar, 37° C., 16-20 hours, read-out: MIC
Description: as §10, §2, §3, §4, §5, §6, §7, §8, §9

[9] = tested on: Escherichia coli ATCC25922; assay: MIC, solid dilution method; conditions: E. coli ATCC25922, standard strain, MHA agar, 37° C., 16-20 hours, read-out: MIC
Description: (§11) (1) Standard strains: Escherichia coli BAA-2452, Escherichia coli ATCC25922, Klebsiella pneumoniae BAA-1705; all purchased from ATCC.
as §2, §3, §4, §5, §6, §7, §8, §9

[10] = tested on: Klebsiella pneumoniae BAA-1705; assay: MIC, solid dilution method; conditions: BAA1705, K.p BAA-1705, standard strain, MHA agar, 37° C., 16-20 hours, read-out: MIC
Description: as §11, §2, §3, §4, §5, §6, §7, §8, §9

[11] = tested on: Escherichia coli BAA-2452; assay: MIC, solid dilution method; conditions: BAA2452, E. coli BAA-2452, standard strain, MHA agar, 37° C., 16-20 hours, read-out: MIC
Description: as §11, §2, §3, §4, §5, §6, §7, §8, §9

16 clinical CRE strains = assay: MIC50, MIC90 and MIC range against 16 clinical CRE strains; conditions: 16 clinical CRE strains; for MIC50: read-out: MIC50; for MIC90: read-out: MIC90
Description: as §2, §3, §4, §5, §6, §7, §8, §9

Klebsiella oxytoca 14151 = assay: MIC, solid dilution method; conditions: K. ox 14151, CRE clinical isolate, MHA agar, 37° C., 16-20 hours, read-out: MIC
Description: as §2, §3, §4, §5, §6, §7, §8, §9

Escherichia coli 14828 = assay: MIC, solid dilution method; conditions: E. coli 14828, CRE clinical isolate, MHA agar, 37° C., 16-20 hours, read-out: MIC
Description: as §2, §3, §4, §5, §6, §7, §8, §9

Escherichia coli 13897 = assay: MIC, solid dilution method; conditions: E. coli 13897, CRE clinical isolate, MHA agar, 37° C., 16-20 hours, read-out: MIC
Description: as §2, §3, §4, §5, §6, §7, §8, §9

Klebsiella oxytoca 14153 = assay: MIC, solid dilution method; conditions: K. ox 14153, CRE clinical isolate, MHA agar, 37° C., 16-20 hours, read-out: MIC
Description: as §2, §3, §4, §5, §6, §7, §8, §9

Escherichia coli 11119 = assay: MIC, solid dilution method; conditions: E. coli 11119, CRE clinical isolate, MHA agar, 37° C., 16-20 hours, read-out: MIC
Description: as §2, §3, §4, §5, §6, §7, §8, §9

Klebsiella oxytoca 12391 = assay: MIC, solid dilution method; conditions: K. ox 12391, CRE clinical isolate, MHA agar, 37° C., 16-20 hours, read-out: MIC
Description: as §2, §3, §4, §5, §6, §7, §8, §9

E. coli 11256 = assay: MIC, solid dilution method; conditions: Escherichia coli; E. coli 11256; MHA agar, 37° C., 16-20 hours; read-out: MIC
Description: as §2, §3, §4, §5, §6, §7, §8, §9

Klebsiella oxytoca 6777 = assay: MIC, solid dilution method; conditions: K. ox 6777, CRE clinical isolate, MHA agar, 37° C., 16-20 hours, read-out: MIC
Description: as §2, §3, §4, §5, §6, §7, §8, §9

Compound	MIC [1] [µg/mL]	MIC [2] [µg/mL]	MIC [3] [µg/mL]	MIC [4] [µg/mL]	MIC [5] [µg/mL]	MIC [6] [µg/mL]	MIC [7] [µg/mL]	MIC [8] [µg/mL]	MIC [9] [µg/mL]	MIC [10] [µg/mL]	MIC [11] [µg/mL]	MIC50 (16 clinical CRE strains) [µg/mL]	MIC90 (16 clinical CRE strains) [µg/mL]	MIC (Klebsiella oxytoca 14151) [µg/mL]	MIC (Escherichia coli 14828) [µg/mL]	MIC (Escherichia coli 13897) [µg/mL]	MIC (Klebsiella oxytoca 14153) [µg/mL]	MIC (Escherichia coli 11119) [µg/mL]	MIC (Klebsiella oxytoca 12391) [µg/mL]	MIC (E. coli 11256) [µg/mL]	other results
CC1(C)[C@H](NC(=O)/C(=N\O[C@@H](COc2ccc3c(c2)CN(C(=N)N[C@@H]2CCCNC2)C3)C(=O)O)c2csc(N)n2)C(=O)N1OS(=O)(=O)O [Compound 41]	4 (≈ 5.64 µM)	2 (≈ 2.82 µM)	0.5 (≈ 0.704 µM)	> 8	0.125 (≈ 0.176 µM)	0.125 (≈ 0.176 µM)	0.125 (≈ 0.176 µM)	> 8	< 0.015	0.25 (≈ 0.352 µM)	0.25 (≈ 0.352 µM)	1 (≈ 1.41 µM)	> 8	0.25 (≈ 0.352 µM)	0.125 (≈ 0.176 µM)	0.06 (≈ 0.0845 µM)	0.25 (≈ 0.352 µM)	4 (≈ 5.64 µM)	0.25 (≈ 0.352 µM)	0.03 (≈ 0.0423 µM)	MIC (Klebsiella oxytoca 6777): 0.25 µg/mL (≈ 0.352 µM)
CC1(C)[C@H](NC(=O)/C(=N\O[C@@H](COc2ccc(C(=N)N[C@@H]3CCCNC3)cc2)C(=O)O)c2csc(N)n2)C(=O)N1OS(=O)(=O)O [AIC499, reference compound]	8 (≈ 12 µM)	2 (≈ 2.99 µM)	1 (≈ 1.5 µM)	> 8	0.25 (≈ 0.374 µM)	0.5 (≈ 0.748 µM)	0.25 (≈ 0.374 µM)	> 8	0.03 (≈ 0.0449 µM)	1 (≈ 1.5 µM)	0.5 (≈ 0.748 µM)	2 (≈ 2.99 µM)	> 8	0.5 (≈ 0.748 µM)	0.5 (≈ 0.748 µM)	0.25 (≈ 0.374 µM)	1 (≈ 1.5 µM)	> 8	1 (≈ 1.5 µM)	0.06 (≈ 0.0897 µM)	MIC (Klebsiella oxytoca 6777): 0.5 µg/mL (≈ 0.748 µM)
CC1(C)[C@H](NC(=O)/C(=N\O[C@@H](COc2ccc3c(c2)CN(C(=N)NCCN)C3)C(=O)O)c2csc(N)n2)C(=O)N1OS(=O)(=O)O [Compound 44]	2 (≈ 2.99 µM)	1 (≈ 1.49 µM)	0.5 (≈ 0.747 µM)	8 (≈ 11.9 µM)	0.125 (≈ 0.187 µM)	0.125 (≈ 0.187 µM)	0.06 (≈ 0.0896 µM)	8 (≈ 11.9 µM)	< 0.015	0.25 (≈ 0.373 µM)	0.25 (≈ 0.373 µM)	0.5 (≈ 0.747 µM)	8 (≈ 11.9 µM)	0.25 (≈ 0.373 µM)	0.125 (≈ 0.187 µM)	0.125 (≈ 0.187 µM)	0.25 (≈ 0.373 µM)	4 (≈ 5.97 µM)	0.25 (≈ 0.373 µM)	0.03 (≈ 0.0448 µM)	MIC (Klebsiella oxytoca 6777): 0.25 µg/mL (≈ 0.373 µM)
